The values below come from patent publication US20240336566A1, “CRYSTALLINE FORMS OF A COMPOUND FOR THE TARGETED DEGRADATION OF THE ANDROGEN RECEPTOR” (Arvinas Operations, Inc., priority 2023, published 2024).

A short description of this series: Primary salt screen: XRPD post temperature cycling/evaporation, post drying and post storage at 40° C./75% RH. The series is classed as physicochemical. The note with it: Compound A + 1.05 eq. counterion (= label); for XRPD results post drying: dried under vacuum at 40° C.; for XRPD results post 40° C./75% RH: stored ca. 20 hours. As to the method: • 30 mg samples of Compound A were weighed out into 2 mL screw cap sample vials for 96 experiments. To these, 200 μL of the appropriate solvent system was added to dissolve the material or form a slurry. See Table 16 for the solvent systems selected for the primary salt screen.
• 1.05 eq. of solid counterions were weighed into six separate vials each and 1 molar stock solutions were prepared for liquid counterions in 5 mL of THF. See Table 17 for selected counterions and mass/volume needed for 1.05 eq. additions. • 100 μL of the appropriate solvent was added to the solid counterions.
The solution/slurry of counterion was added to the solution/slurry of the free base material.
• The samples were placed in an incubator shaker to temperature cycle between ambient and 40° C. over 4 hour cycles. • After ca. 72 hours of temperature cycling, observations were noted, see Table 19.
• Where slurries were obtained, the solids were isolated via centrifugation. Solids and gels were analyzed by XRPD.
Any samples that were clear solutions after temperature cycling were left to evaporate at ambient conditions. See Table 20 for observations made after evaporation. Solids obtained through evaporation were analyzed by XRPD.
• The samples obtained from temperature cycling were dried under vacuum at 40° C. for ca. 20 hours while the samples obtained from evaporation were dried under vacuum at 40° C. for ca. 4 hours. […]

Turning to `Cc1ccc(S(=O)(=O)O)cc1` [p-Toluenesulfonic acid], the “XRPD results post temperature cycling and evaporation” value reads like this: (1,4-Dioxane) “A t”; (DCM) “A e”; (DCM:Methanol (50:50 % v/v)) “A e”; (DMSO:Water (50:50 % v/v)) “A t”; (THF) “S t”; (THF:Water (98:2 % v/v)) “A e”. Moreover, the “XRPD results post drying” value runs as follows: (1,4-Dioxane) “A t”; (DCM:Methanol (50:50 % v/v)) “A e”; (DCM) “A e”; (DMSO:Water (50:50 % v/v)) “A t”; (THF:Water (98:2 % v/v)) “A e”. For the same compound, the “XRPD results post 40° C./75% RH” value was “A t” (1,4-Dioxane); “A e” (DCM:Methanol (50:50 % v/v)); “A e” (DCM); “A t” (DMSO:Water (50:50 % v/v)); “A e” (THF:Water (98:2 % v/v)).
Take `CC(=O)O` [Acetic acid]: the “XRPD results post 40° C./75% RH” value (DMSO:Water (50:50 % v/v)) is reported as “A t h”.
Consider `O=C(O)/C=C\C(=O)O` [Maleic acid], for which the “XRPD results post temperature cycling and evaporation” value is “S t *” (1,4-Dioxane); “C e” (DCM); “A e” (DCM:Methanol (50:50 % v/v)); “A t” (DMSO:Water (50:50 % v/v)); “A e” (THF); “A e” (THF:Water (98:2 % v/v)). Further, the “XRPD results post 40° C./75% RH” value is reported as “A t h” (1,4-Dioxane); “A e” (DCM:Methanol (50:50 % v/v)); “A e” (DCM); “A t” (DMSO:Water (50:50 % v/v)); “A e” (THF:Water (98:2 % v/v)); “A e” (THF). In addition, the “XRPD results post drying” value reads like this: (DCM:Methanol (50:50 % v/v)) “A e”; (DCM) “A e d”; (DMSO:Water (50:50 % v/v)) “A t”; (THF:Water (98:2 % v/v)) “A e”; (THF) “A e”.
Regarding `O=C(O)CC(O)(CC(=O)O)C(=O)O` [Citric acid], the “XRPD results post temperature cycling and evaporation” value is, setting by setting: (1,4-Dioxane) “A t”; (DCM) “A e”; (DCM:Methanol (50:50 % v/v)) “A e”; (DMSO:Water (50:50 % v/v)) “A t”; (THF) “A e”; (THF:Water (98:2 % v/v)) “A e”. Further, the “XRPD results post drying” value is, setting by setting: (1,4-Dioxane) “A t”; (DCM:Methanol (50:50 % v/v)) “A e”; (DCM) “A e”; (DMSO:Water (50:50 % v/v)) “A t”; (THF:Water (98:2 % v/v)) “A e”; (THF) “A e”. The “XRPD results post 40° C./75% RH” value (1,4-Dioxane) is given as “A t”; the “XRPD results post 40° C./75% RH” value (DCM:Methanol (50:50 % v/v)) is given as “A e”; the “XRPD results post 40° C./75% RH” value (DCM) is on record as “A e”; the “XRPD results post 40° C./75% RH” value (DMSO:Water (50:50 % v/v)) is “A t”; the “XRPD results post 40° C./75% RH” value (THF:Water (98:2 % v/v)) was “A e”; the “XRPD results post 40° C./75% RH” value (THF) is recorded as “A e”.
As to `N[C@@H](CCC(=O)O)C(=O)O` [l-Glutamic], under “DCM”, the “XRPD results post temperature cycling and evaporation” value is on record as “C e”; the “XRPD results post drying” value is listed as “C e”; the “XRPD results post 40° C./75% RH” value is “C e”. The “XRPD results post temperature cycling and evaporation” value (DMSO:Water (50:50 % v/v)) is given as “A t”.
As to `O=P(O)(O)O` [Phosphoric acid], the “XRPD results post temperature cycling and evaporation” value runs as follows: (1,4-Dioxane) “A t”; (DCM) “S t *”; (DCM:Methanol (50:50 % v/v)) “S t *”; (THF) “S t”; (THF:Water (98:2 % v/v)) “S t”. In addition, the “XRPD results post drying” value (1,4-Dioxane) is “A t”. Moreover, the “XRPD results post 40° C./75% RH” value by setting is: (1,4-Dioxane) “A t”; (DCM) “A t h”.
